Laboratory results published in publication PMC4994520 (European journal of medicinal chemistry, 2012).
pIC50: −log10 of the molar value.

Biological target: human PDE5 (Homo sapiens, UniProt O76074)
Experiment: PDE5 inhibition, IMAP fluorescence polarization phosphodiesterase assay
Type: biochemical
Conditions: for inhibition at 10 µM: read-out: % PDE5 inhibition at 10 μM

SMILES	inhibition at 10 µM [%]	pIC50
COC(=O)[C@H]1Cc2c([nH]c3ccccc23)[C@@H](c2ccc(Br)cc2)N1 [Compound 1, Methyl (1R,3R)-1-(4-bromophenyl)-2,3,4,9-tetrahydro-1H-β-carboline-3-carboxylate]	10	–
COC(=O)[C@H]1Cc2c([nH]c3ccccc23)[C@H](c2ccc(Br)cc2)N1 [Compound 2, Methyl (1S,3R)-1-(4-bromophenyl)-2,3,4,9-tetrahydro-1H-β-carboline-3-carboxylate]	10	–
COC(=O)[C@@H]1Cc2c([nH]c3ccccc23)[C@H](c2ccc(Br)cc2)N1 [Compound 3, Methyl (1S,3S)-1-(4-bromophenyl)-2,3,4,9-tetrahydro-1H-β-carboline-3-carboxylate]	17	–
COC(=O)[C@@H]1Cc2c([nH]c3ccccc23)[C@@H](c2ccc(Br)cc2)N1 [Compound 4, Methyl (1R,3S)-1-(4-bromophenyl)-2,3,4,9-tetrahydro-1H-β-carboline-3-carboxylate]	75	5.38
CCC(C)N1C(=O)[C@H]2Cc3c([nH]c4ccccc34)[C@@H](c3ccc(Br)cc3)N2C1=O (stereo partly drawn) [Compound 13, (5R,11aR)-5-(4-Bromophenyl)-2-sec-butyl-5,6,11,11a-tetrahydro-1H-imidazo[1′,5′:1,6]pyrido[3,4-b]indole-1,3(2H)-dione]	83	6.43
CCC(C)N1C(=O)[C@H]2Cc3c([nH]c4ccccc34)[C@H](c3ccc(Br)cc3)N2C1=O (stereo partly drawn) [Compound 14, (5S,11aR)-5-(4-Bromophenyl)-2-sec-butyl-5,6,11,11a-tetrahydro-1H-imidazo[1′,5′:1,6]pyrido[3,4-b]indole-1,3(2H)-dione]	67	5.22

The next lines start with the values.

inhibition at 10 µM [%]	pIC50	SMILES
94.4	5.55	CCN1C(=O)[C@H]2Cc3c([nH]c4ccccc34)[C@@H](c3ccc(Br)cc3)N2C1=O [Compound 5, (5R,11aR)-5-(4-Bromophenyl)-2-ethyl-5,6,11,11a-tetrahydro-1H-imidazo[1′,5′:1,6]pyrido[3,4-b]indole-1,3(2H)-dione]
89.3	5.41	CCN1C(=O)[C@H]2Cc3c([nH]c4ccccc34)[C@H](c3ccc(Br)cc3)N2C1=O [Compound 6, (5S,11aR)-5-(4-Bromophenyl)-2-ethyl-5,6,11,11a-tetrahydro-1H-imidazo[1′,5′:1,6]pyrido[3,4-b]indole-1,3(2H)-dione]
79.8	–	CCN1C(=O)[C@@H]2Cc3c([nH]c4ccccc34)[C@H](c3ccc(Br)cc3)N2C1=O [Compound 7, (5S,11aS)-5-(4-Bromophenyl)-2-ethyl-5,6,11,11a-tetrahydro-1H-imidazo[1′,5′:1,6]pyrido[3,4-b]indole-1,3(2H)-dione]
98.7	6.64	CCCCN1C(=O)[C@H]2Cc3c([nH]c4ccccc34)[C@@H](c3ccc(Br)cc3)N2C1=O [Compound 9, (5R,11aR)-5-(4-Bromophenyl)-2-butyl-5,6,11,11a-tetrahydro-1H-imidazo[1′,5′:1,6]pyrido[3,4-b]indole-1,3(2H)-dione]
72.1	< 5.00	CCCCN1C(=O)[C@H]2Cc3c([nH]c4ccccc34)[C@H](c3ccc(Br)cc3)N2C1=O [Compound 10, (5S,11aR)-5-(4-Bromophenyl)-2-butyl-5,6,11,11a-tetrahydro-1H-imidazo[1′,5′:1,6]pyrido[3,4-b]indole-1,3(2H)-dione]
81.5	< 5.00	CCCCN1C(=O)[C@@H]2Cc3c([nH]c4ccccc34)[C@H](c3ccc(Br)cc3)N2C1=O [Compound 11, (5S,11aS)-5-(4-Bromophenyl)-2-butyl-5,6,11,11a-tetrahydro-1H-imidazo[1′,5′:1,6]pyrido[3,4-b]indole-1,3(2H)-dione]
106	–	CCCCN1C(=O)[C@@H]2Cc3c([nH]c4ccccc34)[C@@H](c3ccc(Br)cc3)N2C1=O [Compound 12, (5R,11aS)-5-(4-Bromophenyl)-2-butyl-5,6,11,11a-tetrahydro-1H-imidazo[1′,5′:1,6]pyrido[3,4-b]indole-1,3(2H)-dione]
